Experimental data published in patent US5670520A, “Method for inhibiting virus replication in mammalian cells using carbostyil derivatives” (Otsuka Pharmaceutical Co., Ltd., priority 1996, dated 1997).

Experiments:
U937 cells [1] = experiment: Intracellular AZT-MP, AZT-DP, AZT-TP in U937 cells by HPLC; conditions: U937 cells, 5.0 μCi/ml [3H]AZT, 2 hr
Method: 1.0 ml fractions were collected, and the radioactivity was measured by liquid scintillation. The retention time for AZT and AZT-MP was confirmed using cold AZT and AZT-MP (Sigma) under the same conditions.
Intracellular concentrations of [^3 H]AZT-MP, [^3 H]AZT-DP, and [^3 H]AZT-TP were measured using HPLC as described above.

[2] = tested on: HIV-1 strain 18c (AZT-resistant); experiment: HIV-1 p24 antigen production by infected PBMC, strain 18c; format: cell-based; conditions: Human immunodeficiency virus 1, 120 h; 18c infected PBMC, 5 days, AZT alone
Method: (§1) More specifically, PBMC were incubated for 48 hr with 3.0 μg/ml of PHA and 10 U/ml of IL-2. Then, 10-100 TCID50 virus/ml of clinical isolate strains of HIV-1, 18a (AZT-sensitive) or 18c (AZT-resistant), were added. […] After 5 days of infection, the supernatant was collected and HIV-1 p24 antigen was measured using the p24 ELISA kit (NEN Dupont).
(§2) The combination index (CI) was calculated using multiple drug effect analysis of Chou and Tala, as described by Johnson et al, J. Infect. Dis., 159:837-844 (1989). CI values of <1, =1, and >1, indicate synergism, additive effects, and antagonism, respectively.

[3] = tested on: HIV-1 strain 18a (AZT-sensitive); experiment: microbe, parasite or virus in culture; conditions: Human immunodeficiency virus 1, PBMC, 120 h, read-out: IC50, p24 production
Method: as §1, §2

CMV strain AD169 = experiment: CMV plaque reduction assay in MRC5 cells; format: cell-based; conditions: Human betaherpesvirus 5, AD169, MRC5, 168 h; single compound assay, regression analysis; read-out: MIC50 (minimum concentration that reduces plaque production by 50%)
Method: More specifically, subconfluent monolayers of MRC5 cells (Biowhittaker, Walkersville, Md.) in 12-well tissue culture plates were exposed to a suspension of a 1:500 dilution of stock virus (CMV strain AD169; ATCC No. VR-538) in Eagles Minimal Essential Medium (MEM) supplemented with 2.0% (v/v) fetal bovine serum, for 2 hr at 37° C. to allow for virus absorption. The fluid containing unabsorbed virus was then removed, and the cell layer rinsed with Eagles MEM without serum.
The minimum compound concentration that reduces plaque production by 50% (MIC50) was calculated from single compound assays by using a regression analysis program for semilog curve fitting.
The following formula of additivity, which is appropriate for inhibitors affecting different sites, was used.

[4] = MTT cell viability of MRC5 cells; format: cell-based; conditions: human, mrc5 cells, read-out: MTT Cell Viability (% of control)
Method: More specifically, 5.0 μg/ml of MTT in Eagles MEM supplemented with 2.0% (v/v) fetal bovine serum was added to each well, and incubated at 37° C. for 6 hr. The cells were then solubilized by adding 30% (w/v) SDS in 0.02N HCl. The cultures were incubated overnight at 37° C. Then, the optical density was measured at 570 nm on a spectrophotometer.

EBV = experiment: In situ hybridization of EBV DNA in anti-IgG stimulated DMSO-released Akata cells; format: cell-based, Epstein-Barr virus; conditions: 20 hrs after 50 μg/ml anti-IgG; vesnarinone 0-100 μg/ml; acyclovir pretreatment
Method: The human Burkitt's lymphoma cell line, Akata, provided by Dr. Kenzo Takada (Takada, Int. J. Cancer, 33:27-32 (1984); and Takada et al, Virus Genes, 5:147-156 (1991)), was cultured at 37° C. in RPMI 1640 medium supplemented with 15% (v/v) heat-inactivated FCS, and 20 μg/ml gentamicin.
The cell progression of Akata cells was arrested by culturing of the cells for 96 hrs in the presence of 1.5% (y/v) DMSO (Sigma, St. Louis, Mo.) (Sawai et al, Exp. Cell Res., 187:4-10 (1990); and Takase et al, Cell Growth Differ., 3:515-521 (1992)).
1 hr after transfer (release from DMSO), a goat F(ab')2 fragment of anti-human IgG antibody (Organon Teknika, Durham, N.C.) was added at a concentration of 50 μg/ml to induce productive EBV replication (Takagi et al, Virology, 185:309-315 (1991)).
3 hrs and 20 hrs after treatment with the anti-IgG, the cells were harvested for flow cytometric detection of the BamHI Z replication activator (ZEBRA), and for in situ detection of EBV DNA, respectively. […]
More specifically, cells coated on a glass slide were fixed in acetone at room temperature for 10 min. […] Positivity for EBV DNA was determined by the presence of red-colored grains and at least 1000 cells were examined under light microscopy. […]

human T cells [5] = experiment: Cell numbers of PHA-stimulated human T cells over 120 hrs; format: cell-based; conditions: 10 μg/ml PHA, 0-120 hrs; 250 μM vesnarinone, 15 nM aphidicolin or 100 μM deferoxamine
Method: Next, the effects of the above-described drugs on cell proliferation were evaluated over a period of 120 hrs.

[6] = tested on: nucleoside and nucleobase transport in human T cells; experiment: [3H]nucleoside / [3H]nucleobase transport, 1 min pulse, T cells; format: cell-based; conditions: 250 μM vesnarinone, 100 μM deferoxamine, 15 nM aphidicolin or 1.0 μM dipyridamole
human T cells [7] = experiment: [3H]thymidine incorporation by PHA-stimulated human T cells; format: cell-based; conditions: 10 μg/ml PHA 48 hrs; 15 nM aphidicolin or 100 μM deferoxamine (FIG. 1B)
Method: More specifically, human primary T cells were separated from peripheral blood obtained by leukopheresis of healthy donors. Mononuclear cell suspensions were prepared by Ficoll-Hypaque gradient centrifugation, and T cells were obtained by E-rosette enrichment as described by Kumagai et al, J. Cell. Physiol., 137:329 (1988).
Then, 1.0 μCi of [^3 H]thymidine (6.7 Ci/mmole, ICN), was added to 2.0×10^6 cells (100 μl), and the cells were pulse-labeled for 6 hrs.

human T cells [8] = experiment: 30 min [3H]thymidine, [3H]uridine and [3H]amino acid incorporation; format: cell-based; conditions: 30 min label; 250 μM vesnarinone, 15 nM aphidicolin or 100 μM deferoxamine
Method: Next, the PHA-stimulated T cells were labelled for 30 min with 5.0 μCi/ml of an [^3 H]amino acid mixture (1.0 mCi/ml, Amersham, Arlington Heights, Ill.), washed twice with ice-cold PBS, and then lysed in PBS containing 1.0% (w/v) SDS, followed by addition of a mixture of 7.0% (w/v) trichloroacetic acid and 1.0% (w/v) pyrophosphate. The precipitates were loaded on GF/A filters, and washed extensively with a mixture of 7.0% (w/v) trichloroacetic acid and 1.0% (w/v) pyrophosphate. Radioactivity was measured by scintillation counting.

[9] = in vivo; cited from earlier work
U937 cells [10] = experiment: [3H]thymidine uptake in U937 cells within 1 min; format: cell-based, human
Method: Dipyridamole was prepared as a 50 mM stock solution dissolved in ethanol.

CHO cells [11] = experiment: Rescue of CHO cells from cytostatic effects of 5-FUd; format: cell-based, Chinese hamster; conditions: 50 nM 5-FUd, 120 hrs; 0-250 μM vesnarinone or 1.0-10 μM dipyridamole
From the text: Nucleoside transport inhibitors, such as dipyridamole or NBMPR, are known to rescue cell proliferation from the cytotoxic effects of 5-fluorouridine(5-FUd) or high dose thymidine, by inhibiting transport of this cytotoxic nucleoside analog or thymidine (Aronow et al, Mol. Cell Biol., 6:2957-2962 (1986)).

U937 cells [12] = experiment: Intracellular phosphorylated AZT in U937 cells (DEAE filter); conditions: 0-250 μM vesnarinone or 0-100 nM dipyridamole; 2 hr
Raji cells = experiment: [3H]adenosine / [3H]adenine transport in Raji cells; conditions: 0-750 μM vesnarinone or 0-100 μM dipyridamole, 1 min pulse
CHO cells [13] = experiment: [3H]adenosine / [3H]adenine transport in CHO cells; conditions: 0-750 μM vesnarinone or 0-100 μM dipyridamole, 1 min pulse

In the case of Cc1cn([C@H]2C[C@H](N=[N+]=[N-])[C@@H](CO)O2)c(=O)[nH]c1=O [AZT, 3'azido-3'-deoxythymidine], the “intracellular phosphorylation of AZT” value (U937 cells [1]) is reported as “phosphorylated to AZT-MP, but poorly phosphorylated beyond this stage to the diphosphate form”, the IC50 [2] is reported as > 640 nM and the IC50 [3] is reported as 0.67 nM.
With Nc1nc2c(ncn2COC(CO)CO)c(=O)[nH]1 [DHPG, 9-(1,3-dihydroxy-2-propoxymethyl) guanine, reference compound] the EC50 (CMV strain AD169) was > 5000 nM, the viability at 0.625 µM ([4]; DHPG 0.625 μM alone) was 100% and the viability at 1.25 µM ([4]; DHPG 1.250 μM alone) was 100%. For the same molecule, the viability at 5 µM ([4]; DHPG 5.000 μM alone) was 100%.
In the case of Nc1nc2c(ncn2COCCO)c(=O)[nH]1 [acyclovir, 9-[(2-hydroxyethoxy)methyl]guanine, reference compound], the “population of EBV producing cells (positivity for EBV DNA)” value (EBV) is reported as “dramatically reduced by acyclovir pretreatment”.
With C[C@@]1(CO)[C@H](O)CC[C@@]2(C)[C@H]1CC[C@H]1C[C@@H]3C[C@@]12CC[C@]3(O)CO [aphidicolin] the “cell proliferation (cell number)” value (human T cells [5]) was “no increases in cell number were observed”, the “transport of [3H]thymidine, [3H]adenosine, [3H]adenine, [3H]uracil” value (from here on “transport of [3H]thymidine”) [6] was “had no effect on the transport of these nucleosides or nucleobases” and the “[3H]thymidine incorporation” value (human T cells [7]) was “also inhibited [^3 H]thymidine incorporation”. For the same molecule, the “[3H]uridine incorporation, brief exposure” value (human T cells [8]) was “did not inhibit [^2 H]uridine incorporation”.
With CC(=O)N(O)CCCCCNC(=O)CCC(=O)N(O)CCCCCNC(=O)CCC(=O)N(O)CCCCCN [deferoxamine] the “cell proliferation (cell number)” value (human T cells [5]) was “no increases in cell number were observed”, the “transport of [3H]thymidine” value [6] was “had no effect on the transport of these nucleosides or nucleobases” and the “[3H]thymidine incorporation” value (human T cells [7]) was “also inhibited [^3 H]thymidine incorporation”. The “[3H]thymidine incorporation, brief exposure” value (human T cells [8]) was “only partially inhibited [^3 H]thymidine incorporation” and the “[3H]uridine incorporation, brief exposure” value (human T cells [8]) was “did not inhibit [^2 H]uridine incorporation”.
In the case of OCCN(CCO)c1nc(N2CCCCC2)c2nc(N(CCO)CCO)nc(N3CCCCC3)c2n1 [dipyridamole, reference compound], the therapeutic range [9] is listed as 10 to 100 nM, the uptake of thymidine (U937 cells [10]; 0-250 μM vesnarinone or 0-1000 nM dipyridamole) is listed as “inhibited the uptake of thymidine in a dose-dependent manner” and the IC50 (U937 cells [10]; Homo sapiens, U-937, 1 min, U937 cells, within 1 min) is listed as < 10 nM. For the same molecule, the “reversal of cytostatic effects of 5-FUd (cell number)” value (CHO cells [11]) was “significantly reversed the cytostatic effects of 5-FUd”, the “intracellular concentration of phosphorylated AZT” value (U937 cells [12]) was “did not affect intracellular concentrations of phosphorylated AZT” and the “[3H]adenosine and [3H]adenine transport” value (Raji cells) was “inhibited adenosine transport in a selective fashion with no effect on adenine transport in its therapeutic range”. The “transport of [3H]thymidine” value [6] was “suppressed nucleoside transport, but not nucleobase transport” and the “[3H]adenosine and [3H]adenine transport” value (CHO cells [13]) was “inhibited adenosine transport in a selective fashion with no effect on adenine transport in its therapeutic range”.
